Measured values: BindingDB's records for doi:10.1021/jm0205696 (Abbott Laboratories, 2003)

Molecular target: T1, Tyrosine-protein phosphatase non-receptor type 2 (Homo sapiens, UniProt P17706)
T1 sequence (P17706 whole entry): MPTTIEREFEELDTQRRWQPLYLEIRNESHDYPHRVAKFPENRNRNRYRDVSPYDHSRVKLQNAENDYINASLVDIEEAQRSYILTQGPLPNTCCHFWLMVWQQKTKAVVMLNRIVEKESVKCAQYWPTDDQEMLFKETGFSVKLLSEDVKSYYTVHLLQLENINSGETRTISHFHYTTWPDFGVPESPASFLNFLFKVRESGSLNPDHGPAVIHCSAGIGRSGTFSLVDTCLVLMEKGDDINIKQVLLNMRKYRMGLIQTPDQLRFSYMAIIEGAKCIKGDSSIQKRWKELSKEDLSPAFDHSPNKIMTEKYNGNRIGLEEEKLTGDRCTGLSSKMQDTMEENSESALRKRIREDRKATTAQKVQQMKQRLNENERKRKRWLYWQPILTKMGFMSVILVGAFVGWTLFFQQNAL
Assay: PTP1B and TCPTP Inhibition Assay
Protocol: For each concentration of test compound or DMSO control, the initial rates were used to fit the rectangular hyperbola of Michaelis-Menten by nonlinear regression analysis. The ratio of the apparent Km/Vmax vs inhibitor concentration was plotted, and the Ki was calculated by linear regression to be the negative X-intercept.

`CCCCCNC(=O)[C@H](Cc1ccc(N(C(=O)C(=O)O)c2ccccc2C(=O)O)c(/C=C/C(N)=O)c1)NS(C)(=O)=O` [2-{[2-(2-Carbamoylvinyl)-4-(2-(S)-methanesulfonylamino 2-pentylcarbamoylethyl)phenyl]oxalylamino}-benzoic Acid] gave a Ki of 160 nM.
